In US8399663B2, “Salt of 1,3,5-triazine-2,4,6-triamine derivative” (Astellas Pharma Inc., priority 2009, dated 2013):

How the values were obtained:
[1] = pKa value of the compound; assay type: physicochemical
[2] = tested on: methamphetamine-induced hyperlocomotion; assay: Methamphetamine-induced hyperlocomotion model (animal model of Schizophrenia); assay type: in vivo, male ddY mouse; conditions: oral administration to male ddY mice
Protocol: Methamphetamine is a psychostimulant, and is known to cause symptoms that are similar to Schizophrenia by increasing the transmission in the dopaminergic neurons. The abnormal behavior produced when methamphetamine is administered to an animal is generally used as a screening method for a therapeutic drug for Schizophrenia (Oka et al., 1993, J. Pharmacol. Exp. Ther., 264:158-165, herein incorporated by reference). That is, a male ddY mouse was placed in an activity monitoring apparatus, and after 30 min, methamphetamine was administered. Immediately after administering methamphetamine, the mouse was returned to the monitoring apparatus, and the activity for 1 hour from immediately after the return was measured. For the measurement of the activity, a Supermex sensor manufactured by Muromachi Kikai Co., Ltd. was used. A solvent, or a diluted solution obtained by diluting each of the test compounds with a solvent at multiple concentrations was orally administered to mice in a group. As the solvent, a 0.5% aqueous methyl cellulose solution was used. The statistical analysis was carried out between the group administered with the solvent and the group administered with the drug, using a Dunnett's test.

pKa [1]	SMILES	methamphetamine-induced hyperlocomotion inhibitory action [2]
3.9	Fc1ccc(Nc2nc(NCc3ncccn3)nc(Nc3ccccc3)n2)cc1 [compound A, N-(4-fluorophenyl)-N′-phenyl-N″-(pyrimidin-2-ylmethyl)-1,3,5-triazine-2,4,6-triamine]	inhibited the methamphetamine-induced hyperlocomotion
–	Fc1ccc(Nc2nc(NCc3ncccn3)nc(Nc3ccc(F)cc3)n2)cc1 [compound B, N,N′-bis(4-fluorophenyl)-N″-(pyrimidin-2-ylmethyl)-1,3,5-triazine-2,4,6-triamine]	inhibited the methamphetamine-induced hyperlocomotion
